Converted amounts (≈) assume the structure as drawn. “Also recorded” adds a separate entry of the source. Like-named read-outs stand apart in the source and are kept apart here.
Tests used:
[1] = test system: Alcaligenes faecalis B-326; test: MIC, broth dilution method; assay type: cell-based; conditions: Alcaligenes faecalis, B326, read-out: Minimum inhibitory concentration
Method: (§1) Sodium salt of the antibiotic PS-7 was dissolved and diluted with the BRAIN HEART INFUSION BROTH "Eiken" at a concentration between 5 μg/ml and 100 μg/ml. The solution was further diluted with the same medium to obtain a series of geometric concentrations. To the serial dilutions were added the seed cultures prepared by shaking culture of various test microorganisms shown in Tab. 5 in the BRAIN HEART INFUSION GROTH at 28° C. for 18 hours, the final cell count being about 1×10^5 /ml. […] The lowest concentration at which no cell growth was observed was the minimum inhibitory concentration of the antibiotic PS-7 on the test microorganism. […] . The minimum inhibitory concentrations on test strains were determined in the same manner as mentioned above. […] For the comparison, the results on the known antibiotics Cephazolin and Cefoxitin are also given in the same table.

Citrobacter freundii E-9 [2] = test: MIC, broth dilution method; assay type: cell-based; conditions: Citrobacter freundii, read-out: Minimum inhibitory concentration
Method: as §1

[3] = test system: Diplococcus pneumoniae Type III; test: MIC, broth dilution method; assay type: cell-based; conditions: Streptococcus pneumoniae, 20 h; Table 5; 10% horse blood supplemented into the medium; read-out: Minimum inhibitory concentration
Method: as §1

[4] = test system: Staphylococcus aureus FDA 209P; test: MIC, broth dilution method; assay type: cell-based; conditions: FDA209P, Table 5, 35° C. 20 hours, read-out: Minimum inhibitory concentration
Method: as §1

Citrobacter freundii E-9 [5] = test: Potentiating and synergistic effect, pulp disc inhibition zone on agar plate; assay type: cell-based; conditions: Table 6, disc 20 μl, PS-6 240 μg/ml, reference antibiotics 10,000 μg/ml
Method: (§2) 10 ml of 2.5 folds diluted nutrient agar (pH 7.0) containing 50 μg/ml of penicillin G or cephaloridine was seeded with the β-lactamase producing and β-lactam-resistant microorganisms and poured in a 9 cm Petri dish to provide the bio-assay agar plate. On this assay plate, 8 mm of pulp discs each containing 20 μl of antibiotic PS-6 solution at the concentration of 240 μg/ml were placed and incubated at 35° C. for 18 hours before reading the inhibition zones. A control assay plate was similarly prepared without penicillin G or cephaloridine. As reference antibiotics, 10,000 μg/ml of penicillin G or 20 μl of cephaloridine were disc-assayed under the same conditions.

Serratia marcescens S-18 [6] = test: as above; assay type: cell-based; conditions: Table 6, disc 20 μl, PS-6 240 μg/ml, reference antibiotics 10,000 μg/ml
Method: as §2

[7] = Stability (general statements); assay type: physicochemical; conditions: general statement
[8] = test system: β-lactamase-producing, β-lactam-resistant bacteria; test: Increase of the antibiotic activity of other antibiotics (summary in words); assay type: cell-based; conditions: β-lactamase-producing bacteria such as Proteus vulgaris, Serratia marcescens
Method: as §2, with “On this assay plate, 8 mm of pulp discs each containing 20 μl of antibiotic PS-6 solution at the concentration of 240 μg/ml were placed and incubated at 35° C. for 18 hours before reading the inhibition zones.” left out
Cepholoridine was added to a 2.5-times diluted nutrient agar, pH 7.0 and the medium was inoculated with a β-lactam-producing strain that produceds β-lactamase. Ten ml of the medium was spread and solidified in a petri dish of 9 cm in diameter to prepare an assay plate. […] Each 20 μl of the solution and its 2- and 4-times diluted solutions was soaked in a pulp disc of 8 mm in diameter. To the surface of the above nutrient agar was placed the pulp disc and the size of the growth inhibitory zone around the disc was examined after incubation at 35° C. for 18 hours. […] In addition, for the comparison, a similar experiment was also performed with a pulp disk soaked with 20 μl of 10,000 μg/ml Penicillin G or Cepholoridine solution in place of the antibiotic PS-7.

[9] = test system: Staphylococcus aureus Rassell; test: MIC, broth dilution method; conditions: 20 h, read-out: Minimum inhibitory concentration
[10] = test system: Streptococcus pyogenes NY-5; test: MIC, broth dilution method; conditions: Streptococcus pyogenes, NY5, 20 h, read-out: Minimum inhibitory concentration
[11] = test system: Bacillus subtilis ATCC 6633; test: MIC, broth dilution method; conditions: ATCC6633, 20 h, read-out: Minimum inhibitory concentration
Serratia marcescens S-18 [12] = test: MIC, broth dilution method; conditions: S18, 20 h, read-out: Minimum inhibitory concentration
[13] = test system: Klebsiella pneumoniae K-2; test: MIC, broth dilution method; conditions: Klebsiella pneumoniae, K2, 20 h, read-out: Minimum inhibitory concentration
Enterobacter sp. E-8 = test: MIC, broth dilution method; conditions: SP.E8, 20 h, read-out: Minimum inhibitory concentration
[14] = test system: Enterobacter aerogenes E-19; test: MIC, broth dilution method; conditions: Klebsiella aerogenes, E19, 20 h, read-out: Minimum inhibitory concentration
Proteus vulgaris P-5 = test: MIC, broth dilution method; conditions: Proteus vulgaris, P5, 20 h, read-out: Minimum inhibitory concentration
Proteus rettgeri P-7 = test: MIC, broth dilution method; conditions: Providencia rettgeri, P7, 20 h, read-out: Minimum inhibitory concentration
Providencia sp. P-8 = test: MIC, broth dilution method; conditions: SP.P8, 20 h, read-out: Minimum inhibitory concentration
[15] = test system: Staphylococcus aureus FDA 209P; test: MIC, broth dilution method; assay type: cell-based; conditions: Staphylococcus aureus, FDA209P; Table 7; no unit in the head; read-out: Minimum inhibitory concentration
[16] = test system: Diplococcus pneumoniae Type III; test: MIC, broth dilution method; assay type: cell-based; conditions: Streptococcus pneumoniae; Table 7; no unit in the head; horse serum in the medium at 10%; read-out: Minimum inhibitory concentration
[17] = agar containing 50 μg/ml of cephaloridine
[18] = agar containing 50 μg/ml of penicillin G

Structure (SMILES): CC(=O)NCCSC1=C(C(=O)O)N2C(=O)C(C(C)C)C2C1 (stereo not shown) [Antibiotic PS-6]
- MIC ([1]; Table 5, 35° C. 20 hours): 1.56 µg/mL (≈ 4.99 µM)
- MIC (Citrobacter freundii E-9 [2]; E9, 20 h, Table 5, betalactamase producer): 12.5 µg/mL (≈ 40 µM)
- MIC [3]: 0.17 µg/mL (≈ 0.544 µM)
- MIC [4]: 0.33 µg/mL (≈ 1.06 µM)
- zone of inhibition at 240 µg/mL (Citrobacter freundii E-9 [5]; Citrobacter freundii, E9, 18 h, plate without penicillin G or cephaloridine, read-out: Inhibition zone, Control): 22 mm
- Inhibition zone, with cephaloridine (Citrobacter freundii E-9 [5]; [17]): 25.0 mm
- Inhibition zone, with penicillin G (Citrobacter freundii E-9 [5]; [18]): 23.0 mm
- zone of inhibition at 240 µg/mL (Serratia marcescens S-18 [6]; Serratia marcescens, S18, 18 h, plate without penicillin G or cephaloridine, read-out: Inhibition zone, Control): 20 mm
- Inhibition zone, with cephaloridine (Serratia marcescens S-18 [6]; [17]): 26.0 mm
- Inhibition zone, with penicillin G (Serratia marcescens S-18 [6]; [18]): 22.0 mm
- Stability [7]: somewhat labile; also recorded: more stable in the salt form than in the free acid state
- Synergistic enhancement of the activity of penicillin G or cephaloridine (β-lactam antibiotics) [8]: showed clearly the synergistic effect; also recorded: ability to increase the antibiotic activity of other antibiotics
- MIC [9]: 1.34 µg/mL (≈ 4.29 µM)
- MIC [10]: 0.33 µg/mL (≈ 1.06 µM)
- MIC [11]: 1.34 µg/mL (≈ 4.29 µM)
- MIC (Serratia marcescens S-18 [12]): 50 µg/mL (≈ 160 µM)
- MIC [13]: 12.5 µg/mL (≈ 40 µM)
- MIC (Enterobacter sp. E-8): 12.5 µg/mL (≈ 40 µM)
- MIC [14]: 25 µg/mL (≈ 80 µM)
- MIC (Proteus vulgaris P-5): 25 µg/mL (≈ 80 µM)
- MIC (Proteus rettgeri P-7): 6.25 µg/mL (≈ 20 µM)
- MIC (Providencia sp. P-8): 12.5 µg/mL (≈ 40 µM)

Structure (SMILES): CCC1C(=O)N2C(C(=O)O)=C(SC=CNC(C)=O)CC12 (stereo not shown) [Antibiotic PS-7]
- MIC ([1]; Table 7, no unit in the head): 0.78 µg/mL (≈ 2.63 µM)
- MIC (Citrobacter freundii E-9 [2]; E9, Table 7, no unit in the head, lactamase-producing strain): 3.13 µg/mL (≈ 10.6 µM)
- Stability [7]: somewhat labile; also recorded: more stable in the salt form than in the free acid state
- Synergistic enhancement of the activity of penicillin G or cephaloridine (β-lactam antibiotics) [8]: ability to enhance antimicrobial activity of other antibiotics; also recorded: evident enhancement of antimicrobial activity
- MIC [15]: < 0.19 µg/mL
- MIC [16]: < 0.19 µg/mL

From patent US4368203A, “Antibiotics and derivatives thereof having β-lactamase inhibitory activity and production thereof” (priority 1977, dated 1983)
